According to patent US5114967A, “Antibiotic alisamycin and its use” (Hoechst Aktiengesellschaft, priority 1990, dated 1992):
≈ marks a conversion by molar mass, not a printed value.

Columns and labels:
[1] = tested on: Streptococcus faecalis Eder; test: agar-well method in Antibiotic Assay medium; conditions: Enterococcus faecalis, read-out: Zone diam
[2] = tested on: Streptococcus faecalis UD8b; test: agar-well method in Antibiotic Assay medium; conditions: Enterococcus faecalis, read-out: Zone diam
[3] = antitumor activity
[4] = tested on: Candida albicans
[5] = tested on: gram-positive bacteria; test: antibacterial activity (general statement); assay type: cell-based
[6] = tested on: Staphylococcus aureus 209 p
[7] = tested on: Botrytis cinerea 47
[8] = tested on: Staphylococcus aureus 20424; test: agar-well method in Antibiotic Assay medium; conditions: Staphylococcus aureus, 20424, read-out: Zone diam
[9] = tested on: Streptococcus faecalis 23241; conditions: Enterococcus faecalis
[10] = tested on: Streptococcus faecalis 23241; test: agar-well method in Antibiotic Assay medium; conditions: Enterococcus faecalis, 23241, read-out: Zone diam
[11] = tested on: gram-negative bacteria; test: antibacterial activity (general statement); assay type: cell-based
[12] = tested on: Escherichia coli 9632
[13] = tested on: Staphylococcus aureus E88; test: agar-well method in Antibiotic Assay medium; conditions: E88, read-out: Zone diam
[14] = tested on: Piriicularia oryzae; test: agar-well method in Antibiotic Assay medium; assay type: cell-based
[15] = tested on: Staphylococcus aureus 209 p; test: agar-well method in Antibiotic Assay medium; conditions: read-out: Zone diam
[16] = tested on: Streptococcus faecalis Eder; conditions: Enterococcus faecalis
[17] = tested on: Staphylococcus aureus E88
[18] = tested on: Botrytis cinerea 47; test: agar-well method in Antibiotic Assay medium; conditions: Botrytis cinerea, 47, read-out: Zone diam
[19] = tested on: Piriicularia oryzae; assay type: cell-based
[20] = tested on: Staphylococcus aureus 20424
[21] = solubility; assay type: physicochemical
[22] = antiparasitic activity
[23] = tested on: Candida albicans; test: agar-well method in Antibiotic Assay medium; conditions: read-out: Zone diam
[24] = tested on: Streptococcus faecalis UD8b; conditions: Enterococcus faecalis

## O=C(/C=C/C=C/C1CCCCC1)NC1=CC(O)(/C=C/C=C/C=C/C(=O)NC2=C(O)CCC2=O)C2OC2C1=O (centres unmarked) [Alisamycin]
[1]
  zone of inhibition at 32 µg/mL: 16 mm
  zone of inhibition at 500 µg/mL: 23 mm
[2]
  zone of inhibition at 32 µg/mL: 13 mm
  zone of inhibition at 500 µg/mL: 16 mm
[3]
  antitumor activity: found to have antitumor
[4]
  MIC: 50 µg/mL (≈ 96 µM)
[5]
  activity against gram-positive bacteria: active
[6]
  MIC: 1.6 µg/mL (≈ 3.07 µM)
[7]
  MIC: > 50 µg/mL
[8]
  zone of inhibition at 32 µg/mL: 19 mm
  zone of inhibition at 500 µg/mL: 25 mm
[9]
  MIC: 6.4 µg/mL (≈ 12.3 µM)
[10]
  zone of inhibition at 32 µg/mL: 13 mm
  zone of inhibition at 500 µg/mL: 22 mm
[11]
  activity against gram-negative bacteria: active
[12]
  MIC: > 50 µg/mL
[13]
  zone of inhibition at 32 µg/mL: 14 mm
  zone of inhibition at 500 µg/mL: 27 mm
[14]; 32 μg/ml
  zone of inhibition at 32 µg/mL: 11 mm
[14]; 500 μg/ml
  zone of inhibition at 500 µg/mL: 15 mm
[15]
  zone of inhibition at 32 µg/mL: 18.5 mm
  zone of inhibition at 500 µg/mL: 26 mm
[16]
  MIC: 6.4 µg/mL (≈ 12.3 µM)
[17]
  MIC: 6.4 µg/mL (≈ 12.3 µM)
[18]
  zone of inhibition at 500 µg/mL: 20 mm
[19]
  MIC: > 50 µg/mL
[20]
  MIC: 3.2 µg/mL (≈ 6.15 µM)
[21]; acetonitrile
  solubility: fairly soluble
[21]; chloroform
  solubility: fairly soluble
[21]; dimethylsulfoxide
  solubility: very soluble
[21]; ethanol
  solubility: poorly soluble
[21]; ethyl acetate
  solubility: fairly soluble
[21]; hexane
  solubility: poorly soluble
[21]; methanol
  solubility: poorly soluble
[21]; methylene chloride
  solubility: fairly soluble
[21]; petroleum ether
  solubility: poorly soluble
[21]; propylene glycol
  solubility: very soluble
[21]; water
  solubility: poorly soluble
[22]
  antiparasitic activity: antiparasitic activities
[23]
  zone of inhibition at 500 µg/mL: 10 mm
[24]
  MIC: > 50 µg/mL
